Data: ChEMBL document CHEMBL5725403, “Compounds and pharmaceutical compositions thereof for the treatment of inflammatory disorders” (2017)

Target: Autotaxin (Homo sapiens, UniProt Q13822)
Assay: Human ENPP2 (hENPP2) Assay: Compound IC50 values are determined in a hENPP2 (UniProtKB/SwissProt Sequence ref Q13822) biochemical assay using LPC as substrate. […] The enzyme is diluted in 50 mM Tris-HCl pH 8.5, 500 mM NaCl, 5 mM KCl, 10 mM CaCl2, 0.1% fatty acid free BSA in a total volume of 10 μL. the reaction is started by the addition of 10 μL of 150 μM LPC (palmitoyl 16:0) diluted in the same buffer as described above and the mixture is incubated at 37° C. for 30 min. The reaction is terminated and choline quantified by the addition of a 25 μL of a mixture containing 0.6 U/mL of choline oxidase, 0.6 U/mL of peroxydase, 1.8 mM TOOS, 1.2 mM amino-antipyrine, 20 mM EGTA (stop-developer solution) diluted in the buffer described above. […] is read on the Envision after an incubation of 30 min at room temperature (Excitation 555 nm, excitation light=70%).

- IC50: > 1 µM
SMILES: CCc1nc2ccc(C3CCN(S(C)(=O)=O)CC3)cn2c1N(C)c1nc(-c2ccc(F)cc2)c(Br)s1
